Source: ChEMBL document CHEMBL1201862, “PubChem BioAssay data set” (2004)
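Values below derive from 48-hour exposures of cells grown in 96-well plates, with endpoints linearly interpolated between the two concentrations bracketing the appropriate inhibition level. The concentration for 50% growth inhibition is given as GI50.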 The source made the active and inactive calls. No stated cut-off is given here; in the data, active = GI50 up to about 1.1 µM and inactive = higher.

Columns and labels:
Assay in all cases: DTP human tumour cell line panel, 48 h
[1] = test system: A549
[2] = test system: UACC-257
[3] = test system: PC-3
[4] = test system: ACHN
[5] = test system: SK-MEL-2
[6] = test system: UACC-62
[7] = test system: HOP-62
[8] = test system: SF-268
[9] = test system: SNB-75
[10] = test system: RPMI-8226
[11] = test system: KM12
[12] = test system: U-251
[13] = test system: HT-29
[14] = test system: HL-60
[15] = test system: M14
[16] = test system: T47D
[17] = test system: HCT-116
[18] = test system: 786-0
[19] = test system: OVCAR-4
[20] = test system: SW-620
[21] = test system: DU-145
[22] = test system: NCI-H23
[23] = test system: OVCAR-5
[24] = test system: SK-MEL-5
[25] = test system: Hs-578T
[26] = test system: HCT-15
[27] = test system: BT-549
[28] = test system: EKVX
[29] = test system: NCI-H522
[30] = test system: MCF7
[31] = test system: MDA-MB-435
[32] = test system: MDA-MB-231
[33] = test system: CCRF-CEM
[34] = test system: A498
[35] = test system: SK-OV-3
[36] = test system: UO-31
[37] = test system: SF-295
[38] = test system: SNB-19
[39] = test system: TK-10
[40] = test system: HOP-92
[41] = test system: NCI-H460
[42] = test system: OVCAR-8
[43] = test system: SR
[44] = test system: COLO 205
[45] = test system: SF-539
[46] = test system: OVCAR-3
[47] = test system: NCI-H226
[48] = test system: Malme-3M
[49] = test system: SN12C
[50] = test system: RXF 393
[51] = test system: SK-MEL-28
[52] = test system: MDA-N
[53] = test system: IGROV-1
[54] = test system: LOX IMVI
[55] = test system: K562
[56] = test system: NCI/ADR-RES
[57] = test system: CAKI-1
[58] = test system: HCC 2998
[59] = test system: MOLT-4

Cc1ccc(C)c(NC(=O)NCc2ccc(Cl)cc2)c1
GI50 [1]: > 100 µM (inactive) | GI50 [2]: 39.7 µM (inactive) | GI50 [3]: > 100 µM (inactive) | GI50 [4]: 20.5 µM (inactive) | GI50 [5]: > 63 µM (inactive) | GI50 [6]: > 100 µM (inactive) | GI50 [7]: 9.31 µM (inactive) | GI50 [8]: 38.9 µM (inactive) | GI50 [9]: 2.24 µM (inactive) | GI50 [10]: 37.2 µM (inactive) | GI50 [11]: 87.3 µM (inactive) | GI50 [12]: 17.7 µM (inactive) | GI50 [13]: > 100 µM (inactive) | GI50 [14]: > 100 µM (inactive) | GI50 [15]: 52.5 µM (inactive) | GI50 [16]: 43.7 µM (inactive) | GI50 [17]: 35.3 µM (inactive) | GI50 [18]: 20.6 µM (inactive) | GI50 [19]: 20.1 µM (inactive) | GI50 [20]: 50.7 µM (inactive) | GI50 [21]: > 66.7 µM (inactive) | GI50 [22]: 35.7 µM (inactive) | GI50 [23]: 56.1 µM (inactive) | GI50 [24]: > 70.5 µM (inactive) | GI50 [25]: 25.5 µM (inactive) | GI50 [26]: > 100 µM | GI50 [27]: > 100 µM (inactive) | GI50 [28]: 97.9 µM (inactive) | GI50 [29]: 24.9 µM (inactive) | GI50 [30]: 50.2 µM (inactive) | GI50 [31]: > 100 µM (inactive) | GI50 [32]: 20 µM (inactive) | GI50 [33]: 8.51 µM (inactive) | GI50 [34]: 20.8 µM (inactive) | GI50 [35]: 13.8 µM (inactive) | GI50 [36]: 31 µM (inactive) | GI50 [37]: 16.7 µM (inactive) | GI50 [38]: > 23.3 µM (inactive) | GI50 [39]: 20.5 µM (inactive) | GI50 [40]: 18.3 µM (inactive) | GI50 [41]: > 85.3 µM (inactive) | GI50 [42]: 34.9 µM (inactive) | GI50 [43]: 13.8 µM (inactive) | GI50 [44]: > 100 µM (inactive) | GI50 [45]: > 100 µM (inactive) | GI50 [46]: 28.5 µM (inactive) | GI50 [47]: 38.2 µM (inactive) | GI50 [48]: 26.8 µM (inactive) | GI50 [49]: 36.3 µM (inactive) | GI50 [50]: 8.89 µM (inactive) | GI50 [51]: 97.5 µM (inactive) | GI50 [52]: > 100 µM (inactive) | GI50 [53]: 41.9 µM (inactive) | GI50 [54]: > 100 µM (inactive) | GI50 [55]: 47.5 µM (inactive) | GI50 [56]: > 58.1 µM (inactive) | GI50 [57]: 27.2 µM (inactive)

O=C1NC(=O)/C(=C/c2ccc(S(=O)(=O)N/N=C/c3ccc(Cl)cc3)cc2)N1
GI50 [1]: > 100 µM (inactive) | GI50 [2]: > 100 µM (inactive) | GI50 [3]: > 100 µM (inactive) | GI50 [4]: > 100 µM (inactive) | GI50 [5]: > 100 µM (inactive) | GI50 [6]: > 100 µM (inactive) | GI50 [7]: > 100 µM (inactive) | GI50 [8]: > 100 µM (inactive) | GI50 [9]: > 100 µM (inactive) | GI50 [10]: > 100 µM (inactive) | GI50 [11]: > 100 µM (inactive) | GI50 [12]: > 100 µM (inactive) | GI50 [13]: > 100 µM (inactive) | GI50 [14]: 72.9 µM (inactive) | GI50 [15]: > 100 µM (inactive) | GI50 [58]: > 100 µM (inactive) | GI50 [16]: > 100 µM (inactive) | GI50 [17]: > 100 µM (inactive) | GI50 [18]: > 100 µM (inactive) | GI50 [19]: > 100 µM (inactive) | GI50 [20]: > 100 µM (inactive) | GI50 [21]: > 100 µM (inactive) | GI50 [22]: > 100 µM (inactive) | GI50 [23]: > 100 µM (inactive) | GI50 [24]: > 100 µM (inactive) | GI50 [25]: > 100 µM (inactive) | GI50 [26]: > 100 µM | GI50 [27]: > 100 µM (inactive) | GI50 [28]: > 100 µM (inactive) | GI50 [30]: > 100 µM (inactive) | GI50 [31]: > 100 µM (inactive) | GI50 [32]: > 100 µM (inactive) | GI50 [33]: > 100 µM (inactive) | GI50 [34]: 23.6 µM (inactive) | GI50 [35]: > 100 µM (inactive) | GI50 [36]: > 100 µM (inactive) | GI50 [37]: > 100 µM (inactive) | GI50 [38]: > 100 µM (inactive) | GI50 [39]: > 100 µM (inactive) | GI50 [40]: 78.5 µM (inactive) | GI50 [41]: > 100 µM (inactive) | GI50 [42]: > 100 µM (inactive) | GI50 [43]: 61.2 µM (inactive) | GI50 [44]: > 100 µM (inactive) | GI50 [46]: 65.9 µM (inactive) | GI50 [47]: > 100 µM (inactive) | GI50 [48]: > 100 µM (inactive) | GI50 [49]: > 100 µM (inactive) | GI50 [50]: > 100 µM (inactive) | GI50 [51]: > 100 µM (inactive) | GI50 [59]: > 100 µM (inactive) | GI50 [52]: > 100 µM (inactive) | GI50 [53]: 92.9 µM (inactive) | GI50 [54]: > 100 µM (inactive) | GI50 [55]: > 100 µM (inactive) | GI50 [56]: > 100 µM (inactive) | GI50 [57]: > 100 µM (inactive)
